From PubChem BioAssay (NCI)
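How tested: cells in 96-well plates exposed to compound for 48 hours at five concentrations. Definition used: TGI = concentration required for complete inhibition of growth.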

Experiments:
Experiment in all cases: growth of human tumour cells (NCI), 48 h
MDA-N = system: MDA-N
M14 melanoma = system: M14 melanoma
SR leukemia = system: SR leukemia
K-562 leukemia = system: K-562 leukemia
MCF7 breast = system: MCF7 breast
TK-10 renal = system: TK-10 renal
CAKI-1 renal = system: CAKI-1 renal
HL-60(TB) leukemia = system: HL-60(TB) leukemia
SK-MEL-5 melanoma = system: SK-MEL-5 melanoma
HCT-15 colon = system: HCT-15 colon
SF-268 CNS = system: SF-268 CNS
NCI-H460 lung = system: NCI-H460 lung
HCT-116 colon = system: HCT-116 colon
SF-539 CNS = system: SF-539 CNS
SK-MEL-2 melanoma = system: SK-MEL-2 melanoma
KM12 colon = system: KM12 colon
IGROV1 ovarian = system: IGROV1 ovarian
HS 578T breast = system: HS 578T breast
NCI-H23 lung = system: NCI-H23 lung
SF-295 CNS = system: SF-295 CNS
LOX IMVI melanoma = system: LOX IMVI melanoma
SK-OV-3 ovarian = system: SK-OV-3 ovarian
T-47D breast = system: T-47D breast
HOP-92 NSCLC = system: HOP-92 NSCLC
OVCAR-3 ovarian = system: OVCAR-3 ovarian
SN12C renal = system: SN12C renal
MOLT-4 leukemia = system: MOLT-4 leukemia
UACC-257 melanoma = system: UACC-257 melanoma
SW-620 colon = system: SW-620 colon
A549 NSCLC = system: A549 NSCLC
MDA-MB-435 = system: MDA-MB-435
EKVX NSCLC = system: EKVX NSCLC
U251 CNS = system: U251 CNS
HOP-62 NSCLC = system: HOP-62 NSCLC
NCI-H522 lung = system: NCI-H522 lung
786-0 renal = system: 786-0 renal
UACC-62 melanoma = system: UACC-62 melanoma
ACHN renal = system: ACHN renal
A498 renal = system: A498 renal
HCC-2998 colon = system: HCC-2998 colon
NCI-H226 lung = system: NCI-H226 lung
UO-31 renal = system: UO-31 renal
HT29 colon = system: HT29 colon
COLO 205 colon = system: COLO 205 colon
OVCAR-4 ovarian = system: OVCAR-4 ovarian
MALME-3M melanoma = system: MALME-3M melanoma
OVCAR-8 ovarian = system: OVCAR-8 ovarian
CCRF-CEM leukemia = system: CCRF-CEM leukemia
NCI/ADR-RES ovarian = system: NCI/ADR-RES ovarian
SK-MEL-28 melanoma = system: SK-MEL-28 melanoma
RPMI-8226 leukemia = system: RPMI-8226 leukemia
PC-3 prostate = system: PC-3 prostate
MDA-MB-231 breast = system: MDA-MB-231 breast
SNB-19 CNS = system: SNB-19 CNS

Measured: TGI

Cc1cccc2c(=O)c3cccc(CC(=O)O)c3oc12
> 100 µM: all assays above
